Laboratory results: patent US20240277708A1, “Use of [1,2,4] Triazolo [4,3-B] Pyridazine Derivative For Preventing and Treating Senescence and Senescence-Related Diseases” (The Eighth Affiliated Hospital, Sun Yat-Sen University, priority 2023, published 2024)

What was measured:
BJ cells = assay: VP16-induced cellular senescence, SA-β-gal staining, BJ cells; type: cell-based, Human; details: C1632 120 μM, VP16 40 μM for 4-7 days, FIG. 1A, 1B
Protocol: (§1) MRC5 and BJ cells were cultured in DMEM low-glucose medium containing 10% FBS. The cells were passaged or plated at a ratio of 1:3.0.5×10^5 cells were plated in 12-well plates and in the next day treated with VP16 at a final concentration of 40 μM for 4-7 days to induce cellular senescence. A cellular senescence model was constructed. While inducing cellular senescence, C1632 with a final concentration of 120 μM is added. The effect of C1632 on the senescence of BJ and MRC5 cells was detected by SA-β-gal staining, and the effect of C1632 on cellular senescence was studied.

MRC5 cells = assay: VP16-induced cellular senescence, SA-β-gal staining, MRC5 cells; type: cell-based, Human; details: C1632 120 μM, VP16 40 μM for 4-7 days, FIG. 1A, 1C
Protocol: as §1

[1] = test system: IPF mice (C57BL/6, bleomycin); assay: Bleomycin-induced idiopathic pulmonary fibrosis (IPF) mouse model; type: in vivo
Protocol: A mouse model of […] was constructed by injecting bleomycin (2 mg/kg) into the lungs of the mice through the airway after anesthesia.
(1) Sacrificing the mice after anesthesia, and weighing the lungs and recording as Mlung; {umlaut over (2)} weighing the empty 1.5 mL centrifuge tube, filling with normal saline and the recording the weight of the centrifuge tube again; calculating the exact volume of the tube (Vtube) based on the weight and density of normal saline; (3) completely immersing the lung tissue in the normal saline of the centrifuge tube, covering the lid of centrifuge tube after removing the air, wiping off the water stains around the tube, and recording the weight as M; (4) calculating the weight of normal saline in the tube: […]; (5) calculating the volume of normal saline in the tube: Vsaline=[…], wherein, ρsaline is the density of normal saline; (6) calculating lung volume: Vlung=Vtube−Vsaline; and (7) calculating lung density: μlung=Mlung/Vlung.
The lung tissues were fixed by immersion in 4% paraformaldehyde and then gradiently dehydrated in 70% ethanol for 5 hours, 80% ethanol for 1 h, 90% ethanol for 1 h, 95% ethanol for 1 h, absolute ethanol for 1 h, absolute ethanol for 0.5 h, absolute ethanol+TO (1:1) for 1 h, TO for 1 h, TO for 1 h, paraffin (62° C.) for 1 h, paraffin (62° C.) for 1 h, paraffin (62° C.) for 1 h. After dehydration, the lung tissues were wrapped in the wax blocks and sectioned with a thickness of 4 μm. The paraffin sections were baked at 65° C. for 1 h and then exposed to xylene for 5 min, xylene for 5 min, absolute ethanol for 5 min, 95% ethanol for 5 min, 90% ethanol for 5 min, 85% ethanol for 5 min, 75% ethanol for 5 min; then, gently boiled in citric acid solution for 10 min and naturally cooled to room temperature, and exposed to 3% hydrogen peroxide for 10 min. The sections were blocked with goat antiserum for 1 h at room temperature, incubated overnight with primary antibodies against CD45 (abeam), CD3 (abeam) or CD68 (abeam), then washed 3 times with PBS for 5 min each time, and then incubated with immunohistochemical secondary antibodies (Fujian Maixin) at room temperature for 20 min. Then, the sections was subjected to color development for 2 min by using DAB chromogenic kit (Fujian Maixin), rinsed with water to remove DAB, stained with hematoxylin for 2 min and rinsed with running water for 8 minutes to return blue. After drying, the sections were sealed with neutral gum and photographed.
In this example, the degree of fibrosis in lung tissue was detected through Masson staining, using the Masson trichrome staining kit (Fujian Maixin).
To investigate whether C1632 can be used for the treatment of IPF, the inventors treated IPF mice with C1632 according to the method of FIG. 9A, and divided the mice into (1) normal mice+normal saline group; (2) normal mice+C1632 group; (3) IPF mice+normal saline group; and (4) IPF mice+C1632 group, each group had at least 4 mice. At the end of the experiment, the lung tissues of the mice were taken and photographed. […] The lungs of the model group are dark red, and some lung lobes are gray white, hardened, and scattered gray white plaques of different sizes could be seen.

CKD mice (C57BL/6 male) = assay: Purine (AP) feed-induced chronic kidney disease (CKD) mouse model; type: in vivo; details: 68 mg/kg twice a week
Description: The protocol for constructing a chronic kidney disease (CKD) mouse model in this example was as follows: 8-week-old C57BL/6 male mice were fed with a feed containing 2‰ purine for 1 month, then, fed with a feedcontaining 1.5‰ purine for 3 months. There were at least 10 mice in each group.
(§2) The mice were divided into three groups: (1) normal group; (2) AP+Saline group; (3) AP+C1632 group, 10 mice in each group. The CKD mice in group (3) were fed with a feed containing 2‰ AP for 1 month and then treated with C1632. C1632 was administered twice a week at a dose of 68 mg/kg of body weight each time.
as §2, with “(2) AP+saline” for “(2) AP+Saline”, “group […]” for “group (3)”, “time. During the subsequent 83 days of treatment, the survival of the mice was counted.” for “time.”
The mice were divided into three groups: (1) normal group; (2) AP+saline group; (3) AP+C1632 group, 10 mice in each group. The CKD mice in group (2) and group (3) were fed with a feed containing 2‰ AP for 1 month and then treated with C1632. C1632 was administered twice a week at a dose of 68 mg/kg of body weight each time. After 3 months, the mice were sacrificed, and the kidneys were removed for Masson staining.

[2] = test system: C57BL/c mice, VD3-induced vascular calcification; assay: VD3-induced aortic vascular calcification mouse model, alizarin red staining; type: in vivo; details: VD3 500 IU/g/day for 2 days, C1632 68 mg/kg twice a week, after 6 days; FIG. 15
Protocol: C57BL/c mice were intraperitoneally injected with VD3 at a dose of 500 IU/g/day for 2 consecutive days, and then divided into: (1) Saline group; (3) C1632 group, 10 mice in each group. C1632 was administered twice a week, and CKD mice were treated with C1632 at a dose of 68 mg/kg of body weight each time. After 6 days, the mice were sacrificed, and the aortic blood vessels were dissected for alizarin red staining and hydroxyapatite staining.

[3] = stated for a known small molecule drug, no test described; cited from earlier work

With `CC(=O)N(C)c1cccc(-c2ccc3nnc(C)n3n2)c1` [C1632] the “VP16-induced senescence (β-gal-positive cell rate) in BJ cells” value (BJ cells) was “inhibits VP16-induced senescence”, the “VP16-induced senescence (β-gal-positive cell rate) in MRC5 cells” value (MRC5 cells) was “inhibits VP16-induced senescence” and the “Lung density relative to water (lung lobes placed in water)” value ([1]; IPF mice + C1632, FIG. 9C) was “less dense than water”. For the same molecule, the “Lung density (drainage method)” value ([1]; IPF mice + C1632 vs IPF mice + saline, FIG. 9D) was “significantly reduced”, the “Lung shape, color and hardness (gross appearance)” value ([1]; IPF mice + C1632 vs control group, FIG. 9B) was “closer to those of the control group” and the “Infiltration of CD45 (total immune cells) in lung, IHC” value ([1]; IPF mice, injection of C1632, FIG. 10A, 10B) was “significantly reduces the infiltration of immune cells”. The “Infiltration of CD68 (macrophages) in lung, IHC” value ([1]; IPF mice, injection of C1632, FIG. 10A, 10C) was “significantly reduces the infiltration”, the “Infiltration of CD3 (T cells) in lung, IHC” value ([1]; IPF mice, injection of C1632, FIG. 10A, 10D) was “significantly reduces the infiltration” and the “Hydroxyproline content in lung” value ([1]; IPF mice, FIG. 9I) was “significantly inhibit the increase of hydroxyproline”. For the same molecule, the “Alveolar architecture and fibrosis areas, H&E and Masson staining” value ([1]; lungs of C1632-treated IPF mice, FIG. 9E to 9G) was “more alveolar architecture and less fibrosis areas”, the “Mortality of CKD model mice” value (CKD mice (C57BL/6 male); 83 days of treatment, FIG. 13) was “significantly reduces the mortality” and the “Collagen fibers in the kidney, Masson staining (kidney fibrosis)” value (CKD mice (C57BL/6 male); after 3 months, FIG. 14) was “significantly inhibits the level of collagen fibers”. For the same molecule, the “Weight loss in CKD mice” value (CKD mice (C57BL/6 male); vs control (saline) mice, FIG. 12) was “significantly inhibits weight loss”, the “Aortic vascular calcification, alizarin red staining” value [2] was “significantly inhibits the progression of aortic vascular calcification” and the Solubility [3] was “can be dissolved in water, ethanol or DMSO”. For the same molecule, the Thermal stability [3] was “good thermal stability”.
